From article PMC4767141, “Discovery of Potent, Orally Bioavailable, Small-Molecule Inhibitors of WNT Signaling from a Cell-Based Pathway Screen” (Journal of Medicinal Chemistry, 2015)

Tests used:
5-HT1B = target: T1, 5-HT1B (Rattus norvegicus, UniProt P28564); assay: CEREP binding panel; conditions: antagonist radioligand, read-out: % Inhibition of Control Specific Binding
T1 construct: purchased Millipore KinaseProfiler (kinases); Cerep (receptors and ion channels)

ITK = target: T2, ITK (Homo sapiens, UniProt Q08881); assay: Millipore kinase panel; type: biochemical; conditions: read-out: % Control
T2 construct: purchased Millipore KinaseProfiler (kinases); Cerep (receptors and ion channels)

dopamine transporter (h) = target: T3, dopamine transporter (h) (Homo sapiens, UniProt Q01959); assay: CEREP binding panel; conditions: antagonist radioligand, read-out: % Inhibition of Control Specific Binding
T3 construct: purchased Millipore KinaseProfiler (kinases); Cerep (receptors and ion channels)
T3 sequence (Q01959 whole entry): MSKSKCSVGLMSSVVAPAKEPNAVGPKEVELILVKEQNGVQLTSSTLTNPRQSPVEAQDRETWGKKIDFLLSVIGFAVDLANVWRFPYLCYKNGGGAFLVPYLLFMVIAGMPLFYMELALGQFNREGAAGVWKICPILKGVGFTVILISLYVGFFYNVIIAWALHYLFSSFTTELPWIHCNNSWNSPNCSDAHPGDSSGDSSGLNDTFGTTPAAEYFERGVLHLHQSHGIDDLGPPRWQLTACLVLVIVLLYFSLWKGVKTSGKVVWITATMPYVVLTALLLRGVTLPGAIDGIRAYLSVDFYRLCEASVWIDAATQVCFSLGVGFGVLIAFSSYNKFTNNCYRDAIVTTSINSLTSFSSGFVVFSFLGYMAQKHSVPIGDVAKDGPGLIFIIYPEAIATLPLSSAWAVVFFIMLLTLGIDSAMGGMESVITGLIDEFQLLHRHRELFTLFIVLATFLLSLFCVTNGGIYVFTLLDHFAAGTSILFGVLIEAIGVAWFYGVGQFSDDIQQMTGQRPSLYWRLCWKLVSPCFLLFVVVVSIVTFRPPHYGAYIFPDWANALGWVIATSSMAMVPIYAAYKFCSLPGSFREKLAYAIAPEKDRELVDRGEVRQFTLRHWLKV

FGFR1 = target: T4, FGFR1 (Homo sapiens, UniProt P11362); assay: Millipore kinase panel; type: biochemical; conditions: read-out: % Control
T4 construct: purchased Millipore KinaseProfiler (kinases); Cerep (receptors and ion channels)

PIM-3 = target: T5, PIM-3 (Homo sapiens, UniProt Q86V86); assay: Millipore kinase panel; type: biochemical; conditions: read-out: % Control
T5 construct: purchased Millipore KinaseProfiler (kinases); Cerep (receptors and ion channels)

NLK = target: T6, NLK (Homo sapiens, UniProt Q9UBE8); assay: Millipore kinase panel; type: biochemical; conditions: read-out: % Control
T6 construct: purchased Millipore KinaseProfiler (kinases); Cerep (receptors and ion channels)
T6 sequence (Q9UBE8 whole entry): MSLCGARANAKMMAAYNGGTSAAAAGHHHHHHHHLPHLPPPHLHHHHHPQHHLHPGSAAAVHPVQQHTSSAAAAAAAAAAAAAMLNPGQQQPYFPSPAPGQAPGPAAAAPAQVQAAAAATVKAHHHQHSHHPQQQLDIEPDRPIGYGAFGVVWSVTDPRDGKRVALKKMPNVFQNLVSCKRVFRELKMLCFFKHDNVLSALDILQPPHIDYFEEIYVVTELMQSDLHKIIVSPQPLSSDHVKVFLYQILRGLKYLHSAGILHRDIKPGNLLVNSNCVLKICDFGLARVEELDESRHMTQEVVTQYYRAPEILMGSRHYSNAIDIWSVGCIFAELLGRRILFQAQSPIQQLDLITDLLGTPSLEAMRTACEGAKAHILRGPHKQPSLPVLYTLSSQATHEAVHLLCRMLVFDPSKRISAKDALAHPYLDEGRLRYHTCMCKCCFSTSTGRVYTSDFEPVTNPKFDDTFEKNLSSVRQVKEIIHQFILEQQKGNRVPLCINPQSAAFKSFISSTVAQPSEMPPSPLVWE

FES = target: T7, FES (Homo sapiens, UniProt P07332); assay: Millipore kinase panel; type: biochemical; conditions: read-out: % Control
T7 construct: purchased Millipore KinaseProfiler (kinases); Cerep (receptors and ion channels)

PRKX = target: T8, PRKX (Homo sapiens, UniProt P51817); assay: Millipore kinase panel; type: biochemical; conditions: read-out: % Control
T8 construct: purchased Millipore KinaseProfiler (kinases); Cerep (receptors and ion channels)
T8 sequence (P51817 whole entry): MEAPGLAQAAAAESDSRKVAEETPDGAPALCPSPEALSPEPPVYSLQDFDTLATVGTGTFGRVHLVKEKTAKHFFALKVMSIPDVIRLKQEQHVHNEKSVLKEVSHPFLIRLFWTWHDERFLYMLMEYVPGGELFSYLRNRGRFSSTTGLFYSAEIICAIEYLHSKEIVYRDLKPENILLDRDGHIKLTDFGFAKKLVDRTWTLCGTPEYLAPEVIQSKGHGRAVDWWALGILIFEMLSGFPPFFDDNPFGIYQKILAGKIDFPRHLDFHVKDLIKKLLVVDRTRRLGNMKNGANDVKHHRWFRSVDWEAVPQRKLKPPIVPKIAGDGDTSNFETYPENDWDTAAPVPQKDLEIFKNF

STK33 = target: T9, STK33 (Homo sapiens, UniProt Q9BYT3); assay: Millipore kinase panel; type: biochemical; conditions: read-out: % Control
T9 construct: purchased Millipore KinaseProfiler (kinases); Cerep (receptors and ion channels)
T9 sequence (Q9BYT3 whole entry): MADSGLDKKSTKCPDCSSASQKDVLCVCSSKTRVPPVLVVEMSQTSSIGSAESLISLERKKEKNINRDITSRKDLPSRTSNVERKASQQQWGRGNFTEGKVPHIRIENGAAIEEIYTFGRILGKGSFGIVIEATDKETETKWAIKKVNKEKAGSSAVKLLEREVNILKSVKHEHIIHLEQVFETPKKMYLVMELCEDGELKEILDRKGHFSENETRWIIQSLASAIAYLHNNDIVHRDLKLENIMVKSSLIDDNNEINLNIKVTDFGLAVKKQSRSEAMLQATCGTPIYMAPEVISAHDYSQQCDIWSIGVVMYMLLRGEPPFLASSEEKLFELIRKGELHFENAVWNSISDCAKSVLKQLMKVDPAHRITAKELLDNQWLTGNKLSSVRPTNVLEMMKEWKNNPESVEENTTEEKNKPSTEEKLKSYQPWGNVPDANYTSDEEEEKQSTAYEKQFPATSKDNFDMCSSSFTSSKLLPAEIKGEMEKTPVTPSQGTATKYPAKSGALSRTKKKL

PKCZETA = target: T10, PKCZETA (Homo sapiens, UniProt Q05513); assay: Millipore kinase panel; type: biochemical; conditions: read-out: % Control
T10 construct: purchased Millipore KinaseProfiler (kinases); Cerep (receptors and ion channels)

PDK1 = target: T11, PDK1 (Homo sapiens, UniProt O15530); assay: Millipore kinase panel; type: biochemical; conditions: read-out: % Control
T11 construct: purchased Millipore KinaseProfiler (kinases); Cerep (receptors and ion channels)

FLT4 = target: T12, FLT4 (Homo sapiens, UniProt P35916); assay: Millipore kinase panel; type: biochemical; conditions: read-out: % Control
T12 construct: purchased Millipore KinaseProfiler (kinases); Cerep (receptors and ion channels)

ZIPK = target: T13, ZIPK (Homo sapiens, UniProt O43293); assay: Millipore kinase panel; type: biochemical; conditions: read-out: % Control
T13 construct: purchased Millipore KinaseProfiler (kinases); Cerep (receptors and ion channels)
T13 sequence (O43293 whole entry): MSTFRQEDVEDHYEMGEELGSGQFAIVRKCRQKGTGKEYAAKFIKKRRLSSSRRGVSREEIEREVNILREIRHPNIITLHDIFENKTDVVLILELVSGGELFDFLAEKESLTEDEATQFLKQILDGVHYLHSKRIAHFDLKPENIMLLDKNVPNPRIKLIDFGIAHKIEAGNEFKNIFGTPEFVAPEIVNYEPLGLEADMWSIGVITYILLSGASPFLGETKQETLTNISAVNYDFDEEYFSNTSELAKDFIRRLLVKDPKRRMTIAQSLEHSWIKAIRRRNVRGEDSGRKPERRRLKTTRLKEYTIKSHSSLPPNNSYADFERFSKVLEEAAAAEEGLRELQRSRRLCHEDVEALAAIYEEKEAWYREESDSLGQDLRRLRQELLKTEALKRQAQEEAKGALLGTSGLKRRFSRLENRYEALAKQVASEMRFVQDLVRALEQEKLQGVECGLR

JAK2 = target: T14, JAK2 (Homo sapiens, UniProt O60674); assay: Millipore kinase panel; type: biochemical; conditions: read-out: % Control
T14 construct: purchased Millipore KinaseProfiler (kinases); Cerep (receptors and ion channels)

D1 (h) = target: T15, D1 (h) (Homo sapiens, UniProt P21728); assay: CEREP binding panel; conditions: antagonist radioligand, read-out: % Inhibition of Control Specific Binding
T15 construct: purchased Millipore KinaseProfiler (kinases); Cerep (receptors and ion channels)

PKD2 = target: T16, PKD2 (Homo sapiens, UniProt Q9BZL6); assay: Millipore kinase panel; type: biochemical; conditions: read-out: % Control
T16 construct: purchased Millipore KinaseProfiler (kinases); Cerep (receptors and ion channels)

PDGFRBETA = target: T17, PDGFRBETA (Homo sapiens, UniProt P09619); assay: Millipore kinase panel; type: biochemical; conditions: read-out: % Control
T17 construct: purchased Millipore KinaseProfiler (kinases); Cerep (receptors and ion channels)

PAK5 = target: T18, PAK5 (Homo sapiens, UniProt Q9P286); assay: Millipore kinase panel; type: biochemical; conditions: read-out: % Control
T18 construct: purchased Millipore KinaseProfiler (kinases); Cerep (receptors and ion channels)

IRR = target: T19, IRR (Homo sapiens, UniProt P14616); assay: Millipore kinase panel; type: biochemical; conditions: read-out: % Control
T19 construct: purchased Millipore KinaseProfiler (kinases); Cerep (receptors and ion channels)

ETA (h) = target: T20, ETA (h) (Homo sapiens, UniProt P25101); assay: CEREP binding panel; conditions: agonist radioligand, read-out: % Inhibition of Control Specific Binding
T20 construct: purchased Millipore KinaseProfiler (kinases); Cerep (receptors and ion channels)

PIM-2 = target: T21, PIM-2 (Homo sapiens, UniProt Q9P1W9); assay: Millipore kinase panel; type: biochemical; conditions: read-out: % Control
T21 construct: purchased Millipore KinaseProfiler (kinases); Cerep (receptors and ion channels)

PI3 KINASE (P110A/P85A) = assay: Millipore kinase panel; type: biochemical; conditions: 1 μM, ATP at Km
RON = target: T22, RON (Homo sapiens, UniProt Q04912); assay: Millipore kinase panel; type: biochemical; conditions: read-out: % Control
T22 construct: purchased Millipore KinaseProfiler (kinases); Cerep (receptors and ion channels)

M3 (h) = target: T23, M3 (h) (Homo sapiens, UniProt P20309); assay: CEREP binding panel; conditions: antagonist radioligand, read-out: % Inhibition of Control Specific Binding
T23 construct: purchased Millipore KinaseProfiler (kinases); Cerep (receptors and ion channels)
T23 sequence (P20309 whole entry): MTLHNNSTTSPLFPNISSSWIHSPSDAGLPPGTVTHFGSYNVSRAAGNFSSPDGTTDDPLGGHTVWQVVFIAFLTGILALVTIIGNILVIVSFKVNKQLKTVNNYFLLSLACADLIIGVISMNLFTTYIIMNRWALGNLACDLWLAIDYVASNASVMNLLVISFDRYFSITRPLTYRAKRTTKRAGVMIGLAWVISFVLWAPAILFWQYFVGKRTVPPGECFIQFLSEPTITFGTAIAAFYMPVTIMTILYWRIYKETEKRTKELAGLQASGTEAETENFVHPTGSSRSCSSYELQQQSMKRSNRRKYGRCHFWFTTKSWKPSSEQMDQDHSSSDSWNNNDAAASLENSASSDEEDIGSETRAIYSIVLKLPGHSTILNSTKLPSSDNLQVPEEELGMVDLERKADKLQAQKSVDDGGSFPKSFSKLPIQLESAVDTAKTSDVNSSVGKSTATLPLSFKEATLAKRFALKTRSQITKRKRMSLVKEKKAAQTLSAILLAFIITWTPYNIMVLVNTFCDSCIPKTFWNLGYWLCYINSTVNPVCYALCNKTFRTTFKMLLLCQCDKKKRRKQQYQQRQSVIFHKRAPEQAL

CAMKIIBETA = target: T24, CAMKIIBETA (Homo sapiens, UniProt Q13554); assay: Millipore kinase panel; type: biochemical; conditions: read-out: % Control
T24 construct: purchased Millipore KinaseProfiler (kinases); Cerep (receptors and ion channels)

SAPK2B = target: T25, SAPK2B (Homo sapiens, UniProt Q15759); assay: Millipore kinase panel; type: biochemical; conditions: read-out: % Control
T25 construct: purchased Millipore KinaseProfiler (kinases); Cerep (receptors and ion channels)

PRKAA1 = target: T26, PRKAA1 (Homo sapiens, UniProt Q13131); assay: Millipore kinase panel; type: biochemical; conditions: read-out: % Control
T26 construct: purchased Millipore KinaseProfiler (kinases); Cerep (receptors and ion channels)

ALK = target: T27, ALK (Homo sapiens, UniProt Q9UM73); assay: Millipore kinase panel; type: biochemical; conditions: read-out: % Control
T27 construct: purchased Millipore KinaseProfiler (kinases); Cerep (receptors and ion channels)

FGFR3 = target: T28, FGFR3 (Homo sapiens, UniProt P22607); assay: Millipore kinase panel; type: biochemical; conditions: read-out: % Control
T28 construct: purchased Millipore KinaseProfiler (kinases); Cerep (receptors and ion channels)

TBK1 = target: T29, TBK1 (Homo sapiens, UniProt Q9UHD2); assay: Millipore kinase panel; type: biochemical; conditions: read-out: % Control
T29 construct: purchased Millipore KinaseProfiler (kinases); Cerep (receptors and ion channels)

JAK3 = target: T30, JAK3 (Homo sapiens, UniProt P52333); assay: Millipore kinase panel; type: biochemical; conditions: read-out: % Control
T30 construct: purchased Millipore KinaseProfiler (kinases); Cerep (receptors and ion channels)

PKCMU = target: T31, PKCMU (Homo sapiens, UniProt Q15139); assay: Millipore kinase panel; type: biochemical; conditions: read-out: % Control
T31 construct: purchased Millipore KinaseProfiler (kinases); Cerep (receptors and ion channels)

D2S (h) = target: T32, D2S (h) (Homo sapiens, UniProt P14416); assay: CEREP binding panel; conditions: antagonist radioligand, read-out: % Inhibition of Control Specific Binding
T32 construct: purchased Millipore KinaseProfiler (kinases); Cerep (receptors and ion channels)

BRSK2 = target: T33, BRSK2 (Homo sapiens, UniProt Q8IWQ3); assay: Millipore kinase panel; type: biochemical; conditions: read-out: % Control
T33 construct: purchased Millipore KinaseProfiler (kinases); Cerep (receptors and ion channels)
T33 sequence (Q8IWQ3 whole entry): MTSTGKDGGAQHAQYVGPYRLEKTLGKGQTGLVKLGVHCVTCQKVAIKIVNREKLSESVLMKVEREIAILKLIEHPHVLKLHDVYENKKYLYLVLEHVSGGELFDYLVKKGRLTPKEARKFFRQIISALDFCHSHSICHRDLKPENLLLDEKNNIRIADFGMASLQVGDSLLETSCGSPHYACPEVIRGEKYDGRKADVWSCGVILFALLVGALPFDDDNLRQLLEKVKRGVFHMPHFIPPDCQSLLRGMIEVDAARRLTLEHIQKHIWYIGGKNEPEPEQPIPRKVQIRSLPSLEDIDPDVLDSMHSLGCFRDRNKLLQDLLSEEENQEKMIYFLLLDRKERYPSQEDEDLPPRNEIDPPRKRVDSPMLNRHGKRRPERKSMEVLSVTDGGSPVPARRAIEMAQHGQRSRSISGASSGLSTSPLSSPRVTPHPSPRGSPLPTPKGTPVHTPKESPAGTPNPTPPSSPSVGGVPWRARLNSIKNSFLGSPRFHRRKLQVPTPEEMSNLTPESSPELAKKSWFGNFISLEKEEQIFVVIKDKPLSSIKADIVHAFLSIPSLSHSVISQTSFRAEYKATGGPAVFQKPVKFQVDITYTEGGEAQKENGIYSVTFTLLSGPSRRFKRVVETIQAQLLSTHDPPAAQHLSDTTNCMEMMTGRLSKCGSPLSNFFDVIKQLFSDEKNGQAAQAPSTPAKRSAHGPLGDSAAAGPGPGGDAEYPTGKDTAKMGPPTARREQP

DAPK1 = target: T34, DAPK1 (Homo sapiens, UniProt P53355); assay: Millipore kinase panel; type: biochemical; conditions: read-out: % Control
T34 construct: purchased Millipore KinaseProfiler (kinases); Cerep (receptors and ion channels)

A2A (h) = target: T35, A2A (h) (Homo sapiens, UniProt P29274); assay: CEREP binding panel; conditions: agonist radioligand, read-out: % Inhibition of Control Specific Binding
T35 construct: purchased Millipore KinaseProfiler (kinases); Cerep (receptors and ion channels)
T35 sequence (P29274 whole entry): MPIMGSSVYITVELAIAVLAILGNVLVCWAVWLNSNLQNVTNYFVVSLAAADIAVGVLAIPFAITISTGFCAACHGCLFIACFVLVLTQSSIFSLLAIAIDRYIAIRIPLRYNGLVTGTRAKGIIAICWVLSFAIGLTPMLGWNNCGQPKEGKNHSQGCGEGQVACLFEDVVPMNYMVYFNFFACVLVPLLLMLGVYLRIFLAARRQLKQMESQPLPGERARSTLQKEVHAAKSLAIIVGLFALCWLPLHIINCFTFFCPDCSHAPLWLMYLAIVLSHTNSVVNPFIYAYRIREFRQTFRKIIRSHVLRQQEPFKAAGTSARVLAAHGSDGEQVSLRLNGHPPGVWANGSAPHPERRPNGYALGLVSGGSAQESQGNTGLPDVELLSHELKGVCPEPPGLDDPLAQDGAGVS

A1 (h) = target: T36, A1 (h) (Homo sapiens, UniProt P30542); assay: CEREP binding panel; conditions: antagonist radioligand, read-out: % Inhibition of Control Specific Binding
T36 construct: purchased Millipore KinaseProfiler (kinases); Cerep (receptors and ion channels)

sst (non-selective) = assay: CEREP binding panel; conditions: 10 μM, agonist radioligand
MLCK = target: T37, MLCK (Homo sapiens, UniProt Q9H1R3); assay: Millipore kinase panel; type: biochemical; conditions: read-out: % Control
T37 construct: purchased Millipore KinaseProfiler (kinases); Cerep (receptors and ion channels)

CRAF = target: T38, CRAF (Homo sapiens, UniProt P04049); assay: Millipore kinase panel; type: biochemical; conditions: read-out: % Control
T38 construct: purchased Millipore KinaseProfiler (kinases); Cerep (receptors and ion channels)

DMPK = target: T39, DMPK (Homo sapiens, UniProt Q09013); assay: Millipore kinase panel; type: biochemical; conditions: read-out: % Control
T39 construct: purchased Millipore KinaseProfiler (kinases); Cerep (receptors and ion channels)

5-HT2B (h) = target: T40, 5-HT2B (h) (Homo sapiens, UniProt P41595); assay: CEREP binding panel; conditions: agonist radioligand, read-out: % Inhibition of Control Specific Binding
T40 construct: purchased Millipore KinaseProfiler (kinases); Cerep (receptors and ion channels)

5-HT transporter (h) = target: T41, 5-HT transporter (h) (Homo sapiens, UniProt P31645); assay: CEREP binding panel; conditions: antagonist radioligand, read-out: % Inhibition of Control Specific Binding
T41 construct: purchased Millipore KinaseProfiler (kinases); Cerep (receptors and ion channels)
T41 sequence (P31645 whole entry): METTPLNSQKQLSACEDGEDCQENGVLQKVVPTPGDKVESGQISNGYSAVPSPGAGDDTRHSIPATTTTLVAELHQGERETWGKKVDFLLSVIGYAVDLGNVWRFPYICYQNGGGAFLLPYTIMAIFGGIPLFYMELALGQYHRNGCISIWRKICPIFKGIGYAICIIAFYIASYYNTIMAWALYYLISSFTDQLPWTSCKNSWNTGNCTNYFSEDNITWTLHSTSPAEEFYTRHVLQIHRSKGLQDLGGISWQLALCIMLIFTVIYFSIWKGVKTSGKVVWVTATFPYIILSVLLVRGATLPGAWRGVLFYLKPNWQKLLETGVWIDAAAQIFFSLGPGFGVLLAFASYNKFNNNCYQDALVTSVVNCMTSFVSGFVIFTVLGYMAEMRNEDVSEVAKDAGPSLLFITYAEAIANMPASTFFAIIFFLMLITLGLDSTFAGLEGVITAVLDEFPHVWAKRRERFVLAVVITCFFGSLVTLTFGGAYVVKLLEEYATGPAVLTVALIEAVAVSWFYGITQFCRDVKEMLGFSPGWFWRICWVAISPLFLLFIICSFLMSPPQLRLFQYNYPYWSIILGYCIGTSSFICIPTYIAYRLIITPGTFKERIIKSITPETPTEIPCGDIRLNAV

HIPK2 = target: T42, HIPK2 (Homo sapiens, UniProt Q9H2X6); assay: Millipore kinase panel; type: biochemical; conditions: read-out: % Control
T42 construct: purchased Millipore KinaseProfiler (kinases); Cerep (receptors and ion channels)

With `Cn1cc(-c2ccc(-c3cncc(Cl)c3N3CCC4(CCNC4=O)CC3)cc2)cn1` [Compound 74, 8-(3-Chloro-5-(4-(1-methyl-1H-pyrazol-4-yl)phenyl)pyridin-4-yl)-2,8-diazaspiro[4.5]decan-1-one] the inhibition at 10 µM (5-HT1B) was -7%, the remaining activity at 1 µM (ITK) was -3% and the inhibition at 10 µM (dopamine transporter (h)) was 40%. It also gave a remaining activity at 1 µM (FGFR1) of -49%, a remaining activity at 1 µM (PIM-3) of 8% and a remaining activity at 1 µM (NLK) of 0%. For the same molecule, the remaining activity at 1 µM (FES) was -14%, the remaining activity at 1 µM (PRKX) was 2% and the remaining activity at 1 µM (STK33) was 9%. The remaining activity at 1 µM (PKCZETA) was -7%, the remaining activity at 1 µM (PDK1) was -12% and the remaining activity at 1 µM (FLT4) was -23%. It also gave a remaining activity at 1 µM (ZIPK) of 6%, a remaining activity at 1 µM (JAK2) of 11% and an inhibition at 10 µM (D1 (h)) of 7%. The remaining activity at 1 µM (PKD2) was 7%, the remaining activity at 1 µM (PDGFRBETA) was -6% and the remaining activity at 1 µM (PAK5) was 4%. The remaining activity at 1 µM (IRR) was 3%, the inhibition at 10 µM (ETA (h)) was -9% and the remaining activity at 1 µM (PIM-2) was 13%. For the same molecule, the “% Control” value (PI3 KINASE (P110A/P85A)) was -1%, the remaining activity at 1 µM (RON) was -9% and the inhibition at 10 µM (M3 (h)) was 46%. It also gave a remaining activity at 1 µM (CAMKIIBETA) of 8%, a remaining activity at 1 µM (SAPK2B) of 0% and a remaining activity at 1 µM (PRKAA1) of 2%. For the same molecule, the remaining activity at 1 µM (ALK) was -22%, the remaining activity at 1 µM (FGFR3) was -4% and the remaining activity at 1 µM (TBK1) was 4%. For the same molecule, the remaining activity at 1 µM (JAK3) was 0%, the remaining activity at 1 µM (PKCMU) was -1% and the inhibition at 10 µM (D2S (h)) was 5%. It also gave a remaining activity at 1 µM (BRSK2) of -4%, a remaining activity at 1 µM (DAPK1) of 0% and an inhibition at 10 µM (A2A (h)) of 22%. The inhibition at 10 µM (A1 (h)) was -12%, the “% Inhibition of Control Specific Binding” value (sst (non-selective)) was 4% and the remaining activity at 1 µM (MLCK) was 1%. For the same molecule, the remaining activity at 1 µM (CRAF) was 5%, the remaining activity at 1 µM (DMPK) was 9% and the inhibition at 10 µM (5-HT2B (h)) was 6%. The inhibition at 10 µM (5-HT transporter (h)) was 70% and the remaining activity at 1 µM (HIPK2) was -12%.
